Results taken from patent publication US20230320956A1, “DIARYLALKANE COMPOUNDS AND COMPOSITIONS FOR USE WITH SKIN AGING AND METHODS OF PRODUCTION THEREOF” (Unigen, Inc., priority 2022, published 2023).

Tested on: keratinocytes (Hacat cell line)
Experiment: Global gene expression (RNA-seq) in treated keratinocytes
Assay type: cell-based, human
Settings: for Fold change (gene expression): 40 μM vs untreated; for Fold Enrichment / Number of Genes Differentially Expressed: 40 μM
Method: To determine specific expression changes dimethoxytolyl propylresorcinol exerted on human keratinocyte aging genes, keratinocytes (Hacat cell line) were treated dimethoxytolyl propylresorcinol at 40 μM and gene expression was analyzed by RNA-seq. Differential gene expression was compared to untreated keratinocytes and cells treated with 40 μM Retinol A to find genes involved in aging. […] Retinol was chosen as a positive control because retinoids have been described as having effective anti-aging and anti-wrinkle effects (Zasada M, 2019). We directly compared the effects of Retinol on keratinocytes with the same concentration of dimethoxytolyl propylresorcinol.

[1] = Gene Cluster Activation of MAPK activity
[2] = Gene Cluster Calcium ion binding
[3] = Gene Cluster Cell-cell signaling
[4] = Gene Cluster Cellular response to lipopolysaccharide
[5] = Gene Cluster Cellular response to retinoic acid
[6] = Gene Cluster Epidermis development
[7] = Gene Cluster Epithelial cell differentiation
[8] = Gene Cluster Extracellular exosome
[9] = Gene Cluster Extracellular matrix organization
[10] = Gene Cluster Extracellular region
[11] = Gene Cluster Extracellular space
[12] = Gene Cluster Growth factor activity
[13] = Gene Cluster Inflammatory response
[14] = Gene Cluster Intermediate filament cytoskeleton organization
[15] = Gene Cluster Negative regulation of ERK1 and ERK2 cascade
[16] = Gene Cluster Negative regulation of cell proliferation
[17] = Gene Cluster Negative regulation of endopeptidase activity
[18] = Gene Cluster Neutrophil chemotaxis
[19] = Gene Cluster O-glycan processing
[20] = Gene Cluster Osteoblast differentiation
[21] = Gene Cluster Positive regulation of angiogenesis
[22] = Gene Cluster Positive regulation of cell migration
[23] = Gene Cluster Positive regulation of cell proliferation
[24] = Gene Cluster Positive regulation of gene expression
[25] = Gene Cluster Positive regulation of smooth muscle cell proliferation
[26] = Gene Cluster Proteinaceous extracellular matrix
[27] = Gene Cluster Transforming growth factor beta receptor binding

SMILES: CC1=C(/C=C/C(C)=C/C=C/C(C)=C/CO)C(C)(C)CCC1 [Retinol, reference compound]
- Fold change (gene expression) (AHR - Aryl hydrocarbon receptor, Oxidative stress): No effect
- Fold change (gene expression) (ANGPTL4 - Angiopoietin-like 4, Negative regulation of growth/Angiogenesis): 2.77 fold
- Fold change (gene expression) (ANOS1 - Anosmin 1, ECM/Nerve adhesion): 0.55 fold
- Fold change (gene expression) (BMP4 - Bone morphogenetic protein 4, Growth): 0.51 fold
- Fold change (gene expression) (C3orf33 - Chromosome 3 open reading frame 33, Negative regulation of growth): 2.24 fold
- Fold change (gene expression) (CD1D - CD1d molecule, ECM): 0.32 fold
- Fold change (gene expression) (CDK5R1 - Cyclin-dependent kinase 5 activator 1, Growth/Skin barrier): No effect
- Fold change (gene expression) (CEACAM1 - CEA cell adhesion molecule 1, Cell adhesion): 3.00 fold
- Fold change (gene expression) (COL1A1 - Collagen type 1, ECM): No effect
- Fold change (gene expression) (COL5A1 - Collagen type V alpha 1 chain, ECM): 0.27 fold
- Fold change (gene expression) (CRISPLD2 - Cysteine-rich secretory protein LCCL domain-containing 2, ECM): 1.98 fold
- Fold change (gene expression) (CXCL3 - C-X-C motif chemokine ligand 3, Immune signaling): 2.60 fold
- Fold change (gene expression) (CYP1A1 - Cytochrome P450 family 1 subfamily A member 1, Drug metabolism): 2.30 fold
- Fold change (gene expression) (ECM1 - Extracellular matrix protein 1, ECM): No effect
- Fold change (gene expression) (EPHA4 - Ephrin type-A receptor 4, Cell adhesion, cell communication): 0.55 fold
- Fold change (gene expression) (EREG - Epiregulin, Growth): No effect
- Fold change (gene expression) (FABP5 - Fatty acid binding protein 5, Skin barrier): No effect
- Fold change (gene expression) (FGF1 - Fibroblast growth factor 1, Growth): 0.45 fold
- Fold change (gene expression) (FGF11 - Fibroblast growth factor 11, Growth): 0.50 fold
- Fold change (gene expression) (FLRT2 - Fibronectin leucine-rich transmembrane protein 2, ECM): 0.58 fold
- Fold Enrichment [1]: 3.15 fold
- Number of Genes Differentially Expressed [1]: 7
- Fold Enrichment (Gene Cluster Angiogenesis): 2.37 fold
- Number of Genes Differentially Expressed (Gene Cluster Angiogenesis): 11
- Fold Enrichment [2]: 2.04 fold
- Number of Genes Differentially Expressed [2]: 30
- Fold Enrichment (Gene Cluster Cell development): 4.81 fold
- Number of Genes Differentially Expressed (Gene Cluster Cell development): 4
- Fold Enrichment (Gene Cluster Cell surface): 1.84 fold
- Number of Genes Differentially Expressed (Gene Cluster Cell surface): 20
- Fold Enrichment [3]: 2.46 fold
- Number of Genes Differentially Expressed [3]: 13
- Fold Enrichment [4]: 4.26 fold
- Number of Genes Differentially Expressed [4]: 10
- Fold Enrichment [5]: 4.12 fold
- Number of Genes Differentially Expressed [5]: 6
- Fold Enrichment [6]: 4.53 fold
- Number of Genes Differentially Expressed [6]: 8
- Fold Enrichment [7]: 4.81 fold
- Number of Genes Differentially Expressed [7]: 7
- Fold Enrichment [8]: 1.47 fold
- Number of Genes Differentially Expressed [8]: 83
- Fold Enrichment [9]: 3.19 fold
- Number of Genes Differentially Expressed [9]: 13
- Fold Enrichment [10]: 1.73 fold
- Number of Genes Differentially Expressed [10]: 56
- Fold Enrichment [11]: 2.48 fold
- Number of Genes Differentially Expressed [11]: 67
- Fold Enrichment [12]: 3.00 fold
- Number of Genes Differentially Expressed [12]: 10
- Fold Enrichment (Gene Cluster Growth): 6.87 fold
- Number of Genes Differentially Expressed (Gene Cluster Growth): 4
- Fold Enrichment (Gene Cluster Heparin binding): 4.86 fold
- Number of Genes Differentially Expressed (Gene Cluster Heparin binding): 16
- Fold Enrichment [13]: 2.54 fold
- Number of Genes Differentially Expressed [13]: 20
- Fold Enrichment [14]: 9.62 fold
- Number of Genes Differentially Expressed [14]: 3
- Fold Enrichment [15]: 5.81 fold
- Number of Genes Differentially Expressed [15]: 7
- Fold Enrichment [16]: 2.43 fold
- Number of Genes Differentially Expressed [16]: 20
- Fold Enrichment [17]: 2.78 fold
- Number of Genes Differentially Expressed [17]: 7
- Fold Enrichment [18]: 3.65 fold
- Number of Genes Differentially Expressed [18]: 5
- Fold Enrichment [19]: 4.00 fold
- Number of Genes Differentially Expressed [19]: 5
- Fold Enrichment [20]: 3.24 fold
- Number of Genes Differentially Expressed [20]: 7
- Fold Enrichment [21]: 3.35 fold
- Number of Genes Differentially Expressed [21]: 8
- Fold Enrichment [22]: 3.40 fold
- Number of Genes Differentially Expressed [22]: 13
- Fold Enrichment [23]: 1.86 fold
- Number of Genes Differentially Expressed [23]: 18
- Fold Enrichment [24]: 2.20 fold
- Number of Genes Differentially Expressed [24]: 12
- Fold Enrichment [25]: 4.81 fold
- Number of Genes Differentially Expressed [25]: 6
- Fold Enrichment [26]: 4.27 fold
- Number of Genes Differentially Expressed [26]: 23
- Fold Enrichment (Gene Cluster Response to drug): 2.37 fold
- Number of Genes Differentially Expressed (Gene Cluster Response to drug): 15
- Fold Enrichment [27]: 5.79 fold
- Number of Genes Differentially Expressed [27]: 5
- Fold change (gene expression) (HAS2 - hyaluronan synthase 2, ECM): No effect
- Fold change (gene expression) (HAS3 - hyaluronan synthase 3, ECM): No effect
- Fold change (gene expression) (HBEGF - Heparin-binding EGF-like growth factor, Growth): No effect
- Fold change (gene expression) (HIF1A - Hypoxia-inducible factor 1 subunit alpha, Oxidative stress): No effect
- Fold change (gene expression) (HMOX1 - Heme oxygenase 1, Oxidative stress): No effect
- Fold change (gene expression) (HS3ST1 - Heparan sulfate-glucosamine 3-sulfotransferase 1, ECM): 1.48 fold
- Fold change (gene expression) (IL1A - Interleukin 1 alpha, Cytokine signaling): No effect
- Fold change (gene expression) (IL1RL1 - Interleukin 1 receptor-like 1, Immune signaling): 3.13 fold
- Fold change (gene expression) (ITGA6 - Integrin subunit alpha 6, Cell adhesion): 0.59 fold
- Fold change (gene expression) (ITGBL1 - Integrin subunit beta-like 1, Cell adhesion): No effect
- Fold change (gene expression) (KIF13A - Kinesin family member 13A, Cytoskeleton/secretion): 0.68 fold
- Fold change (gene expression) (LAMA3 - Laminin subunit alpha 3, ECM): No effect
- Fold change (gene expression) (LAMC2 - Laminin subunit gamma 2, ECM): 0.71 fold
- Fold change (gene expression) (NGF - Nerve growth factor, Growth): No effect
- Fold change (gene expression) (NID2 - Nidogen 2 precursor, ECM): 0.79 fold
- Fold change (gene expression) (OCLN - Occludin, Skin barrier): No effect
- Fold change (gene expression) (OLFM4 - Olfactomedin 4, ECM): 0.28 fold
- Fold change (gene expression) (PARP15 - Poly (ADP-Ribose) polymerase family member 15, DNA damage repair/transcription regulation): No effect
- Fold change (gene expression) (PI3 - Peptidase inhibitor 3, elastase inhibitor, Elastin genes): No effect
- Fold change (gene expression) (PSAPL1 - Prosaposin-like 1, ECM): 0.32 fold
- Fold change (gene expression) (PSG5 - Pregnancy specific beta-1-glycoprotein 5, ECM): 0.37 fold
- Fold change (gene expression) (PTPRR - Protein tyrosine phosphatase receptor type R, Negative regulation of growth): 2.31 fold
- Fold change (gene expression) (RAPGEF3 - Rap guanine nucleotide exchange factor 3, Plasma membrane fusion/cytoskeleton): 1.81 fold
- Fold change (gene expression) (SELE - E-Selectin, Cell adhesion): No effect
- Fold change (gene expression) (SEMA3D - Semaphorin 3D, ECM/Nerve growth): 0.50 fold
- Fold change (gene expression) (SERPINB2 - Serpin family B member 2, Skin barrier): 0.70 fold
- Fold change (gene expression) (SERPINB4 - Serpin family B member 4, Skin barrier): No effect
- Fold change (gene expression) (SIRT1 - Sirtuin 1, Transcription regulation): No effect
- Fold change (gene expression) (SIRT7 - Sirtuin 7, Transcription regulation): No effect
- Fold change (gene expression) (SOD2 - Superoxide dismutase 2, Oxidative stress): No effect
- Fold change (gene expression) (TFP12 - Tissue factor pathway inhibitor 2, ECM): 2.46 fold
- Fold change (gene expression) (TGFB1 - Transforming growth factor beta 1, TGF-β signaling): No effect
- Fold change (gene expression) (TLR4 - Toll-like receptor 4, Immune signaling): 2.67 fold
- Fold change (gene expression) (TNC - Tenascin C, ECM/Nerve growth): 0.14 fold
- Fold change (gene expression) (TP73 - Tumor protein P73, Growth): 0.38 fold
- Fold change (gene expression) (TXNRD1 - Thioredoxin reductase 1, Oxidative stress): 1.45 fold
- Fold change (gene expression) (UGCG - UDP-glucose ceramide glucosyltransferase, Lipid metabolism and transport): 1.24 fold
- Fold change (gene expression) (VIT - Vitrin, ECM): 0.14 fold
